# Test results from patent publication US11434205B2, “Substituted imidazole carboxylate derivatives and the use thereof” (priority 2018, dated 2022).
# Like-named read-outs stand apart in the source and are kept apart here.
# Columns and labels:
# rats [1] = type: in vivo, rat; conditions: rats of the MAP/HR figures, 2×ED50, tail vein; same value in min
# Summary of the method: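 Rats implanted with telemetry (left ventricular and abdominal aortic catheters, ECG leads) at least one week before recording; compounds given via lateral tail-vein catheter. MAP and HR sampled every 15 s for 30 min before and after dosing to judge hemodynamic stability.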
# rats [2] = test: Loss of righting reflexes (LORR) assay in rats, ED50 by up and down method; type: in vivo, rat; conditions: tail vein, class symbols; for ED50: Rattus norvegicus
# Summary of the method: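 Adult male Sprague-Dawley rats (250-300 g) dosed i.v. via tail vein at 0.1 mL/s. Anesthesia scored as loss of righting reflex lasting >30 s; ED50 derived by up-and-down method.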
# rats [3] = conditions: continuous tail vein infusion at 2×MIR, LORR maintained 1 hour
# Procedure: Pharmacological Effects of the Compounds on Continuous Infusion in Rats
# Adult male Sprague-Dawley rats with body weight ranging from 250 to 300 gm were selected for continuous infusion test. […] Time to recovery of righting reflex from stopping infusion, and time to fully awake from stopping infusion were recorded.
# rats [4] = test: Pharmacological characteristics at equivalent doses (2×ED50) in rats; conditions: 2×ED50, tail vein; for Adverse reactions: Red urine (incidence): DMSO solution (DMSO alone 10/10); for Onset time: time of LORR; for Adverse reactions: Tremor (incidence): animals affected/animals
# Summary of the method: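 Adult male Sprague-Dawley rats (250-300 g, n=8) received each drug at twice its ED50 via tail vein (0.6 mL at 0.1 mL/s). Onset of anesthesia taken as time to LORR.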
# rats [5] = tested on: rats
# Procedure: Adult male Sprague-Dawley rats (250-300 g) were selected for the experiment. […] The anesthesia effects of the compounds were assessed in rats using a LORR assay and a period >30 s was considered as an indicator of general anesthesia. Then the up and down method was used to determine 50% effective dose (ED50). The drugs were administered through the tail vein of rats in a volume of 0.6 mL and at a rate of 0.1 mL/s.
# rats [6] = type: in vivo, rat; conditions: rats of the MAP/HR figures, 2×ED50, tail vein
# [7] = tested on: secretion of cortisol, H295R cell line; test: cells; type: cell-based
# Procedure: (§1) The Effects of the Compounds on Adrenocortical Function In Vitro Test
# (§2) Then secretion of the cortisol and corticosterone in the supernatant, was measured using HPLC-MS/MS method to determine whether the compounds of the present invention had adrenotoxic potential.
# [8] = tested on: secretion of corticosterone, H295R cell line; test: cells; type: cell-based
# Procedure: as §1, §2
# [9] = H295R cell line, 0.1-10000 nM, HPLC-MS/MS, Table D3
SMILES,recovery time of the test animals' righting reflex (rats [1]),ED50 (rats [2]),Onset time (rats [3]; Table D4),Recovery time after stopping infusion (rats [3]; Table D4),Types and incidence of adverse reactions (rats [3]; Table D4),Righting reflex duration (rats [4]),Adverse reactions: Red urine (incidence) (rats [4]),Onset time (rats [4]),Approximate therapeutic index (rats [5]),Minimal lethal dose (rats [5]),recovery time of the test animals' righting reflex (rats [6]),Onset time (rats [3]; Table E4),Recovery time after stopping infusion (rats [3]; Table E4),Types and incidence of adverse reactions (rats [3]; Table E4),Adverse reactions: Tremor (incidence) (rats [4]),further results
C=C=CC(C)OC(=O)c1cncn1[C@H](C)c1ccccc1 (some centres unmarked) [Compound D22],0.83 min,0.1 to 0.5 mg/kg,3 to 4 min,14 to 18 min,"Euphoria (2/6), Tremor (4/6)",4.51 ± 1.63 min,urine (8/8),0.24 ± 0.07 min,>11,>2 mg/kg,50 s,–,–,–,–,"Adverse reactions: Euphoria (incidence) (rats [4]): Euphoria (1/8), Red"
CC#CC(C)OC(=O)c1c(Cl)ncn1[C@H](C)c1ccccc1 (some centres unmarked) [Compound E116],1.53 min,0.5 to 1 mg/kg,–,–,–,1.18 ± 0.56 min,(8/8),0.61 ± 0.23 min,>16,>10 mg/kg,92 s,3 to 4 min,11 to 15 min,"Tremor (1/6), Tongue stretching (3/6)",–,–
C#CC1(OC(=O)c2c(Cl)nc(Cl)n2[C@H](C)c2ccccc2)COC1 [Compound E148],0.97 min,0.5 to 1 mg/kg,–,–,–,0.49 ± 0.38 min,urine (8/8),0.75 ± 0.24 min,>12,>10 mg/kg,58 s,3 to 4 min,11 to 16 min,"Myoclonus (2/6), Tremor (3/6)","(5/8), Red",–
C#CC1(OC(=O)c2cncn2[C@H](C)c2ccccc2)CCC1 [Compound D1],13.08 min,0.1 to 0.5 mg/kg,3 to 4 min,11 to 14 min,Tremor (2/6),4.28 ± 1.78 min,Red urine (8/8),0.26 ± 0.10 min,>14,>6 mg/kg,785 s,–,–,–,–,–
C=CC(C)(C)OC(=O)c1c(F)ncn1[C@H](C)c1ccccc1 [Compound E32],3.65 min,–,–,–,–,3.86 ± 1.13 min,urine (8/8),0.30 ± 0.14 min,>30,>4 mg/kg,219 s,2 to 3 min,12 to 16 min,"Tremor (2/6), Tongue stretching (3/6)","(3/8), Red","ED50 (mg/kg) (rats [2]): B (B means that the measured ED50 is in the range of 0.10-0.50 mg/kg (excluding 0.10 mg/kg, including 0.50 mg/kg).); Sedation duration (mg/kg) (rats [4]): 8.70 ± 2.07"
CCOC(=O)c1c(Cl)nc(Cl)n1[C@H](C)c1ccccc1 [Compound E129],0.87 min,0.1 to 0.5 mg/kg,–,–,–,0.68 ± 0.34 min,urine (8/8),0.87 ± 0.26 min,>30,>9 mg/kg,52 s,3 to 4 min,8 to 13 min,No,"(3/8), Red",–
CC#CC1(OC(=O)c2cncn2[C@H](C)c2ccccc2)COC1 [Compound D39],6.25 min,0.5 to 1 mg/kg,–,–,–,1.11 ± 0.34 min,urine (8/8),0.20 ± 0.05 min,>15,>9 mg/kg,375 s,–,–,–,–,"Adverse reactions: Hindlimb rigidity (incidence) (rats [4]): Hindlimb rigidity (1/8),; Adverse reactions: Myoclonus (incidence) (rats [4]): Myoclonus (1/8), Red; Cortisol as an indicator to determine the presence of inhibition [7, 9]: 0; EC50 ([7]; Homo sapiens, NCI-H295R, read-out: EC50 (Cortisol)): > 1000 nM; Corticosterone as an indicator to determine the presence of inhibition [8, 9]: 0; EC50 ([8]; Homo sapiens, NCI-H295R, read-out: EC50 (Corticosterone)): > 1000 nM"
C=C=CC1(OC(=O)c2c(F)ncn2[C@H](C)c2ccccc2)CCC1 [Compound E64],2.48 min,0.01 to 0.1 mg/kg,–,–,–,2.28 ± 1.28 min,urine (8/8),0.31 ± 0.06 min,>40,>1.5 mg/kg,149 s,2 to 3 min,11 to 14 min,No,"(2/8), Red",–
C#CC1(OC(=O)c2cncn2[C@H](C)c2ccccc2)COC1 [Compound D3],1.27 min,0.5 to 1 mg/kg,2 to 3 min,7 to 9 min,"Restlessness (2/6), Tremor (3/6)",1.05 ± 0.29 min,urine (8/8),0.19 ± 0.05 min,>10,>8 mg/kg,76 s,–,–,–,–,"Adverse reactions: Restlessness (incidence) (rats [4]): Restlessness (4/8), Red"
C#CC1(COC(=O)c2cncn2[C@H](C)c2ccccc2)CCC1 [Compound D10],10.08 min,0.5 to 1 mg/kg,3 to 4 min,13 to 17 min,Tremor (6/6),6.04 ± 2.27 min,(8/8),0.14 ± 0.03 min,>12,>6 mg/kg,605 s,–,–,–,"Tremor (2/8), Red urine",–
CCOC(=O)c1c(Cl)ncn1[C@H](C)c1ccccc1 [Compound E100],1.83 min,–,–,–,–,1.98 ± 1.85 min,urine (8/8),0.60 ± 0.24 min,>30,>12 mg/kg,110 s,2 to 3 min,9 to 14 min,Tremor (3/6),"(5/8), Red","ED50 (mg/kg) (rats [2]): B (B means that the measured ED50 is in the range of 0.10-0.50 mg/kg (excluding 0.10 mg/kg, including 0.50 mg/kg).); Sedation duration (mg/kg) (rats [4]): 5.82 ± 2.11"
